One data set concerns hCMEC/D3 cells. The experiment in a line: Cellular uptake/internalization of FAM-labelled peptide (lysate fluorescence normalized to protein; fluorescence imaging). In kind it is in vitro ADME, human. The following applies: 3 h. How it is done:
All experiments were performed on human brain microvascular endothelial cell line (hCMEC/D3; Millipore Sigma, Massachusetts, US, cat# SCC066), an established and well characterized model of human BBB in vitro [11, 15, 16]. Cells (2.5 × 10^3/cm^2; passages 29–32) were cultured on sterile flasks, 96-well plates (for cell viability) and chamber slides (for immunofluorescence imaging) previously coated with Matrigel in HEPES buffered basal endothelial medium (EBM2) supplemented with various growth factors and 5% FBS using Lonza EGM2 MV BulletKit™ [15]. Following 80–90% confluence, cells were subjected to experimental conditions as listed below with serum concentration reduced to 1% FBS. Culture medium’s composition was adjusted (EBM2 medium buffered with HEPES and 1% BSA with no growth factors) to determine the effects of pH and serum (%; protein binding) on the cellular uptake of FAM-OL peptide. Basic pH was maintained with addition of 1 N sodium hydroxide to the medium, while acidic pH was established by addition of phosphoric acid. Cells were lysed with RIPA buffer at the end of treatment with OL peptide and the florescence intensity was measured using BioTek Synergy2 Multimode microplate reader using cellular lysates from cells treated with 0.1% DMSO as controls at 490/520 nm. […]

For data set [1] the following is noted: BSA-conjugated monosaccharides and cell-based assays; relative to L-fucose; cited from earlier work. From the text: Previous studies reported the potential of lectins as drug carriers to specific sites of action based on their ability to selectively bind to specific sugar moieties of targeted cells. In addition, lectins could promote drug targeting into or across the cell barriers through vesicular transport. […] As also shown in Fig. 4, it is quite evident that the internalized OL is stable at all concentration tested further supporting the notion that this peptide is likely internalized into the cellular endosome but not the lysosomes.

On the set-up of data set [2]: method as in PMID 18584053. The following applies: cited from earlier work.
For the next data set, the system named is mice. The arrangement: method as in PMID 18584053. The following applies: cited from earlier work.

Turning to odorranalectin [OL], the “Concentration dependence of cellular uptake” value in the data set with hCMEC/D3 cells (hCMEC/D3, 10-100 µg/mL, 37 °C, media 1% FBS, 0.1% DMSO, fluorescence imaging / lysate fluorescence 490/520 nm normalized per µg protein (BCA), N = 4-5) is “increased linearly”. The “Cellular uptake compared to scramble peptide at identical concentrations” value in the data set with hCMEC/D3 cells (hCMEC/D3, 37 °C, 1% FBS, total cell lysate fluorescence normalized per µg protein, side by side, P < 0.01) was “two to threefolds higher”. Further, in data set [1], the “Binding to N-acetyl-d-galactosamine” value is on record as “to a lesser degree” and the Binding to galactose result is reported as “to a lesser degree”. The Immunogenicity result in data set [2] was “low immunogenicity”. Further, the “Toxicity profile in mice” value with mice is “low toxicity profile”.

The values above are taken from PMC6505199, “In vitro characterization of odorranalectin for peptide-based drug delivery across the blood–brain barrier” (BMC Neuroscience, 2019).
